In ChEMBL document CHEMBL4673262, “Ginkgobilol, a new diarylpentanoid and an osteogenic diarylpentanoid analog from Ginkgo biloba leaves” (2020):
Activity calls are given as the source filed them. The calls are words filed in the database; no cut-off is given here.

What was measured:
C3H 10T1/2 [1] = assay: Induction of osteogenic differentiation in mouse C3H10T1/2 cells assessed as increase in osteopontin mRNA expression at 5 uM by RT-qPCR analysis relative to control; format: functional, cell-based
C3H 10T1/2 [2] = assay: Induction of osteogenic differentiation in mouse C3H10T1/2 cells assessed as increase in alkaline phosphatase mRNA expression at 5 uM by RT-qPCR analysis relative to control; format: functional, cell-based
C3H 10T1/2 [3] = assay: Induction of osteogenic differentiation in mouse C3H10T1/2 cells upto 40 uM assessed as osteoblast by measuring alkaline phosphatase after 10 days of differentiation relative to control; format: functional, cell-based; settings: dose microM <=40, time 10.0 day
C3H 10T1/2 [4] = assay: Induction of osteogenic differentiation in mouse C3H10T1/2 cells assessed as increase in osteopontin mRNA expression by RT-qPCR analysis relative to control; format: functional, cell-based
[5] = Induction of osteogenic differentiation in mouse C3H10T1/2 cells assessed as increase in alkaline phosphatase mRNA expression at 40 uM by RT-qPCR analysis relative to control; format: functional, C3H 10T1/2
C3H 10T1/2 [6] = assay: Induction of osteogenic differentiation in mouse C3H10T1/2 cells assessed as increase in alkaline phosphatase mRNA expression by RT-qPCR analysis relative to control; format: functional, cell-based
[7] = Induction of osteogenic differentiation in mouse C3H10T1/2 cells assessed as increase in osteopontin mRNA expression at 40 uM by RT-qPCR analysis relative to control; format: functional, C3H 10T1/2
C3H 10T1/2 [8] = assay: Induction of osteogenic differentiation in mouse C3H10T1/2 cells assessed as osteoblast by measuring increase in alkaline phosphatase at 20 uM relative to control; format: functional, cell-based

## COc1cc([C@H]2O[C@H](c3cc(OC)c(O)c(OC)c3)[C@@H](COC(=O)/C=C/c3ccc(O)cc3)[C@@H]2COC(=O)/C=C/c2ccc(O)cc2)cc(OC)c1O
C3H 10T1/2 [1]
  Activity: Active
C3H 10T1/2 [2]
  Activity: Active

## Oc1ccc(/C=C\C/C=C\c2ccc(O)cc2)cc1
C3H 10T1/2 [3]
  Activity: Dose-dependent effect
C3H 10T1/2 [4]
  Activity: Dose-dependent effect
[5]
  fold change (FC): 7.8
C3H 10T1/2 [6]
  Activity: Dose-dependent effect
[7]
  fold change (FC): 4.7
C3H 10T1/2 [8]
  Activity: Active

## CO[C@@H](c1ccc(O)cc1)[C@H](O)C/C=C\c1ccc(O)cc1
C3H 10T1/2 [8]
  Activity: inactive
